From patent US8148373B2, “Compounds” (AstraZeneca AB, priority 2008, dated 2012)

Assays:
[1] = target: T1, Adrenergic β2 (H292 cells) (Homo sapiens, UniProt P07550); experiment: Adrenergic β2 Mediated cAMP Production, single concentration 1 μM; type: cell-based; conditions: percentage of the maximum response generated by 1E-07M formoterol; for activation at 1 µM: NCI-H292, 1 μM compound, read-out: β2 (% effect at 1 μM)
T1 construct: endogenous in cells; host or cells: H292 cells
Experimental: The following experimental procedure was used to measure the beta-2% effect at 1 μM for the compounds of Examples 116-263. Adrenergic β2 Mediated cAMP Production Cell Preparation
H292 cells are grown in 225 cm2 flasks incubator at 37° C., 5% CO2 in RPMI medium containing 10% (v/v) FBS (foetal bovine serum) and 2 mM L-glutamine.
Compounds were prepared by an initial first dilution into DMSO to give 1 mM stock concentration. This was followed by a 1 in 10 dilution of the stock concentration (10 μl stock compound+90 μl DMSO) to give 0.1 mM compound.
A compound addition plate was prepared by making a further 1 in 25 dilution in assay buffer (HBSS solution containing 10 mM HEPES pH7.4 and 5 mM glucose) containing 4% dimethylsulfoxide. The final compound concentration in assay is 1 μM.
Adherent H292 cells are removed from tissue culture flasks by treatment with Accutase™ cell detachment solution for 15 minutes. Flasks are incubated for 15 minutes in a humidified incubator at 37° C., 5% CO2. Detached cells are re-suspended in RPMI media (containing 10% (v/v) FBS and 2 mM L-glutamine) at 0.1×10^6 cells per mL. 10000 cells in 100 μL are added to each well of a tissue-culture-treated 96-well plate and the cells incubated overnight in a humidified incubator at 37° C., 5% CO2. The culture media is removed and cells are washed twice with 100 μL assay buffer and replaced with 50 μL assay buffer (HBSS solution containing 10 mM HEPES pH7.4 and 5 mM glucose). Cells are rested at room temperature for 20 minutes after which time 25 μL of rolipram (1.2 mM made up in assay buffer) is added. Cells are incubated with rolipram for 10 minutes after which time 25 μl test compounds are added and the cells are incubated for 60 minutes at room temperature. The final rolipram concentration in the assay is 300 μM and final vehicle concentration is 1% (v/v) dimethylsulphoxide. The reaction is stopped by removing supernatants, washing once with 100 μL assay buffer and replacing with 50 μL lysis buffer. The cell monolayer is frozen at −80° C. for 30 minutes (or overnight).
AlphaScreen™ cAMP Detection
The concentration of cAMP (cyclic adenosine monophosphate) in the cell lysate is determined using AlphaScreen™ methodology. The frozen cell plate is thawed for 20 minutes on a plate shaker then 10 μL of the cell lysate is transferred to a 96-well white plate. 40 μL of mixed AlphaScreen™ detection beads (containing equal volumes of donor beads (pre-incubated with biotinylated cAMP in the dark for 30 minutes) and acceptor beads is added to each well and the plate incubated at room temperature for 3 hours in the dark. The AlphaScreen™ signal is measured using an EnVision spectrophotometer (Perkin-Elmer Inc.) with the recommended manufacturer's settings. Concentration of cAMP produced per well were calculated with reference to the cAMP standard curve determined in the same experiment and expressed as a percentage of the maximum response generated by 1E-07M formoterol.

[2] = target: T2, human muscarinic acetylcholine M3 receptor (M3-ACh) (Homo sapiens, UniProt P20309); experiment: Muscarinic 3 Receptor Binding Assay, % inhibition specific binding at 1 μM; conditions: 1 μM compound, % inhibition specific [3H]-NMS binding
T2 construct: expressed in transfected cells; host or cells: CHO-K1 (Chinese Hamster Ovary) cell membranes
T2 sequence (P20309 whole entry): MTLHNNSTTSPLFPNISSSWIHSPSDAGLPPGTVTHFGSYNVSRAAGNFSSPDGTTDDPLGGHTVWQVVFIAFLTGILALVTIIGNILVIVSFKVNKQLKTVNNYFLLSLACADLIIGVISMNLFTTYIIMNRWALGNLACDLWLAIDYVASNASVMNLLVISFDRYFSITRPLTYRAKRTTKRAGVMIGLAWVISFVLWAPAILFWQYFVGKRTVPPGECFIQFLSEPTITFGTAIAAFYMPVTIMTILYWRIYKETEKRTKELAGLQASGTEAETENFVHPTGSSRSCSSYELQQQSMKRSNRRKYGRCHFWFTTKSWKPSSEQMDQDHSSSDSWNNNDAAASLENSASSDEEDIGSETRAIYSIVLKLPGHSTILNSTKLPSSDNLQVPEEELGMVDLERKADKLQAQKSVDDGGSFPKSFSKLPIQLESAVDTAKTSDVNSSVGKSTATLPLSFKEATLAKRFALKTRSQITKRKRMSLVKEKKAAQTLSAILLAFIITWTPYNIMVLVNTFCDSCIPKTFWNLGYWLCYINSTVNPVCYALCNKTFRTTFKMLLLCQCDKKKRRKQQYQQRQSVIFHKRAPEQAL
Experimental: The following experimental procedure was used to determine the M3% inhibition at 1 μM of the compounds of Examples 116-263.
Muscarinic 3 Receptor Binding Assay
The activity (% inhibition specific binding) of compounds -on the M3 receptor is determined by competition binding of [^3H]N-methyl scopolamine (NMS) to CHO-K1 (Chinese Hamster Ovary) cell membranes expressing the human muscarinic acetylcholine M3 receptor (M3-ACh) in a scintillation proximity assay (SPA) format.
SPA beads are precoated with membranes and then incubated at 2 mg of beads per well with 1 μM compound of the invention, [^3H]NMS at 0.1 nM, quarter Kd (experimentally determined dissociation constant) and assay buffer (20 mM HEPES pH 7.4 containing 5 mM MgCl2). The assay is conducted in a final volume of 200 μL, in the presence of 1% (v/v) dimethyl sulphoxide (DMSO). Total binding of [^3H]NMS is determined in the absence of competing compound and non-specific binding of [^3H]NMS is determined in the presence of 1 μM atropine. The plates are incubated for 16 hours at room temperature and then read on Wallac Microbeta™ using a normalised ^3H protocol. The compound activity at 1 defined as % inhibition specific [^3H]-NMS binding, is determined.

T1 sequence (P07550 whole entry): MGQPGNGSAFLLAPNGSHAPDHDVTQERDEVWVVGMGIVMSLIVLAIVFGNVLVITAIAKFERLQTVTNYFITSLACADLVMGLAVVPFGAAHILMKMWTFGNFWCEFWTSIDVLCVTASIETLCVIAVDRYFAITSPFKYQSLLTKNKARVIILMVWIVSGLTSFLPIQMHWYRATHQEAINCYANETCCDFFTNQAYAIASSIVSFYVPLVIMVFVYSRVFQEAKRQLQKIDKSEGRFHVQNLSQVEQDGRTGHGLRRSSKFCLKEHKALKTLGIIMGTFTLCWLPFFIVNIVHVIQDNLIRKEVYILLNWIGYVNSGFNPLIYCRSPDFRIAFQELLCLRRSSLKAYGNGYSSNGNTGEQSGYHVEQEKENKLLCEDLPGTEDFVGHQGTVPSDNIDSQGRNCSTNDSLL

SMILES	activation at 1 µM [1] [%]	inhibition at 1 µM [2] [%]	β2 (% effect at 1 μM) ([1]; 1 μM compound) [%]	M3 (% inhibition at 1 μM) ([2]; 1 µM) [%]
Cc1n[nH]c(CC(=O)N2CCOC3(CCN(Cc4cc(F)cc(CCNC[C@H](O)c5ccc(O)c6[nH]c(=O)sc56)c4)CC3)C2)n1 [Example 134, (R)-7-(2-(3-fluoro-5-((4-(2-(3-methyl-1H-1,2,4-triazol-5-yl)acetyl)-1-oxa-4,9-diazaspiro[5.5]undecan-9-yl)methyl)phenethylamino)-1-hydroxyethyl)-4-hydroxybenzo[d]thiazol-2(3H)-one]	116	4		
CCn1c(=O)n(CC(=O)N2CCOC3(CCN(Cc4cc(F)cc(CCNC[C@H](O)c5ccc(O)c6[nH]c(=O)sc56)c4)CC3)C2)c2ccccc21 [Example 135, (R)-7-(2-(3-((4-(2-(3-ethyl-2-oxo-2,3-dihydro-1H-benzo[d]imidazol-1-yl)acetyl)-1-oxa-4,9-diazaspiro[5.5]undecan-9-yl)methyl)-5-fluorophenethylamino)-1-hydroxyethyl)-4-hydroxybenzo[d]thiazol-2(3H)-one]	106	1		
COc1ccc(OC)c(C(=O)N2CCOC3(CCN(Cc4cc(F)cc(CCNC[C@H](O)c5ccc(O)c6[nH]c(=O)sc56)c4)CC3)C2)c1 [Example 136, (R)-7-(2-(3-((4-(2,5-dimethoxybenzoyl)-1-oxa-4,9-diazaspiro[5.5]undecan-9-yl)methyl)-5-fluorophenethylamino)-1-hydroxyethyl)-4-hydroxybenzo[d]thiazol-2(3H)-one]	111	26		
O=C(c1c[nH]c2ccccc12)N1CCOC2(CCN(Cc3cc(F)cc(CCNC[C@H](O)c4ccc(O)c5[nH]c(=O)sc45)c3)CC2)C1 [Example 137, (R)-7-(2-(3-((4-(1H-indole-3-carbonyl)-1-oxa-4,9-diazaspiro[5.5]undecan-9-yl)methyl)-5-fluorophenethylamino)-1-hydroxyethyl)-4-hydroxybenzo[d]thiazol-2(3H)-one]	112	13		
O=C(c1ccc2[nH]ccc2c1)N1CCOC2(CCN(Cc3cc(F)cc(CCNC[C@H](O)c4ccc(O)c5[nH]c(=O)sc45)c3)CC2)C1 [Example 138, (R)-7-(2-(3-((4-(1H-indole-5-carbonyl)-1-oxa-4,9-diazaspiro[5.5]undecan-9-yl)methyl)-5-fluorophenethylamino)-1-hydroxyethyl)-4-hydroxybenzo[d]thiazol-2(3H)-one]	92	27		
Cn1c(C(=O)N2CCOC3(CCN(Cc4cc(F)cc(CCNC[C@H](O)c5ccc(O)c6[nH]c(=O)sc56)c4)CC3)C2)cc2ccccc21 [Example 139, (R)-7-(2-(3-fluoro-5-((4-(1-methyl-1H-indole-2-carbonyl)-1-oxa-4,9-diazaspiro[5.5]undecan-9-yl)methyl)phenethylamino)-1-hydroxyethyl)-4-hydroxybenzo[d]thiazol-2(3H)-one]	101	34		
O=C(c1ccc2cc[nH]c2c1)N1CCOC2(CCN(Cc3cc(F)cc(CCNC[C@H](O)c4ccc(O)c5[nH]c(=O)sc45)c3)CC2)C1 [Example 140, (R)-7-(2-(3-((4-(1H-indole-6-carbonyl)-1-oxa-4,9-diazaspiro[5.5]undecan-9-yl)methyl)-5-fluorophenethylamino)-1-hydroxyethyl)-4-hydroxybenzo[d]thiazol-2(3H)-one]	109	76		
CC(C)n1nnc2cc(C(=O)N3CCOC4(CCN(Cc5cc(F)cc(CCNC[C@H](O)c6ccc(O)c7[nH]c(=O)sc67)c5)CC4)C3)ccc21 [Example 142, (R)-7-(2-(3-fluoro-5-((4-(1-isopropyl-1H-benzo[d][1,2,3]triazole-5-carbonyl)-1-oxa-4,9-diazaspiro[5.5]undecan-9-yl)methyl)phenethylamino)-1-hydroxyethyl)-4-hydroxybenzo[d]thiazol-2(3H)-one]	100	-3		
O=C(c1ccc(-c2ccccc2)cc1)N1CCOC2(CCN(Cc3cc(F)cc(CCNC[C@H](O)c4ccc(O)c5[nH]c(=O)sc45)c3)CC2)C1 [Example 145, (R)-7-(2-(3-((4-(biphenylcarbonyl)-1-oxa-4,9-diazaspiro[5.5]undecan-9-yl)methyl)-5-fluorophenethylamino)-1-hydroxyethyl)-4-hydroxybenzo[d]thiazol-2(3H)-one]			53	7

The next lines start with results.

activation at 1 µM [1] [%]	inhibition at 1 µM [2] [%]	SMILES	β2 (% effect at 1 μM) ([1]; 1 μM compound) [%]	M3 (% inhibition at 1 μM) ([2]; 1 µM) [%]
108	2	Cc1ccc2nc(C)c(C(=O)N3CCOC4(CCN(Cc5cc(F)cc(CCNC[C@H](O)c6ccc(O)c7[nH]c(=O)sc67)c5)CC4)C3)n2c1 [Example 143, (R)-7-(2-(3-((4-(2,6-dimethylimidazo[1,2-a]pyridine-3-carbonyl)-1-oxa-4,9-diazaspiro[5.5]undecan-9-yl)methyl)-5-fluorophenethylamino)-1-hydroxyethyl)-4-hydroxybenzo[d]thiazol-2(3H)-one]		
101	35	O=C(Cc1noc2ccccc12)N1CCOC2(CCN(Cc3cc(F)cc(CCNC[C@H](O)c4ccc(O)c5[nH]c(=O)sc45)c3)CC2)C1 [Example 144, (R)-7-(2-(3-((4-(2-(benzo[d]isoxazol-3-yl)acetyl)-1-oxa-4,9-diazaspiro[5.5]undecan-9-yl)methyl)-5-fluorophenethylamino)-1-hydroxyethyl)-4-hydroxybenzo[d]thiazol-2(3H)-one]		
96	41	O=C(c1[nH]nc2c1CCCC2)N1CCOC2(CCN(Cc3cc(F)cc(CCNC[C@H](O)c4ccc(O)c5[nH]c(=O)sc45)c3)CC2)C1 [Example 146, (R)-7-(2-(3-fluoro-5-((4-(4,5,6,7-tetrahydro-2H-indazole-3-carbonyl)-1-oxa-4,9-diazaspiro[5.5]undecan-9-yl)methyl)phenethylamino)-1-hydroxyethyl)-4-hydroxybenzo[d]thiazol-2(3H)-one]		
102	66	Cc1sccc1C(=O)N1CCOC2(CCN(Cc3cc(F)cc(CCNC[C@H](O)c4ccc(O)c5[nH]c(=O)sc45)c3)CC2)C1 [Example 147, (R)-7-(2-(3-fluoro-5-((4-(2-methylthiophene-3-carbonyl)-1-oxa 4,9-diazaspiro[5.5]undecan-9-yl)methyl)phenethylamino)-1-hydroxyethyl)-4-hydroxybenzo[d]thiazol-2(3H)-one]		
104	4	O=C(c1ccc(-c2cc[nH]n2)cc1)N1CCOC2(CCN(Cc3cc(F)cc(CCNC[C@H](O)c4ccc(O)c5[nH]c(=O)sc45)c3)CC2)C1 [Example 148, (R)-7-(2-(3-((4-(4-(1H-pyrazol-3-yl)benzoyl)-1-oxa-4,9-diazaspiro[5.5]undecan-9-yl)methyl)-5-fluorophenethylamino)-1-hydroxyethyl)-4-hydroxybenzo[d]thiazol-2(3H)-one]		
